Measurements: ChEMBL document CHEMBL1629634, “Postantibiotic effect of tigecycline against 14 gram-positive organisms” (Antimicrob Agents Chemother, 2009)
Converted amounts (≈) assume the structure as drawn.

Columns and labels:
[1] = tested on: Staphylococcus aureus; experiment: Antibacterial activity against vancomycin-sensitive methicillin-resistant Staphylococcus aureus assessed as post-antibiotic sub-MIC effect at 0.2 times MIC concentration pretreated with 10 times MIC concentration for 1 hr followed by 1:1000 dilution by viable plate count method; format: functional
[2] = tested on: Staphylococcus aureus; experiment: Antibacterial activity against vancomycin-intermediate methicillin-resistant Staphylococcus aureus assessed as post-antibiotic sub-MIC effect at 0.2 times MIC concentration pretreated with 6 times MIC concentration for 1 hr followed by 1:1000 dilution by viable plate count method; format: functional
[3] = tested on: Enterococcus faecalis; experiment: Antibacterial activity against vancomycin-sensitive Enterococcus faecalis assessed as post-antibiotic sub-MIC effect at 0.2 times MIC concentration pretreated with 10 times MIC concentration for 1 hr followed by 1:1000 dilution by viable plate count method; format: functional
[4] = tested on: Haemophilus influenzae; experiment: Antibacterial activity against beta-lactamase deficient ampicillin-resistant Haemophilus influenzae assessed as post-antibiotic sub-MIC effect at 0.2 times MIC concentration pretreated with 10 times MIC concentration for 1 hr followed by 1:1000 dilution by viable plate count method; format: functional
[5] = tested on: Haemophilus influenzae; experiment: Antibacterial activity against amoxicillin, clavulanate-resistant Haemophilus influenzae expressing beta-lactamase assessed as post-antibiotic sub-MIC effect at 0.2 times MIC concentration pretreated with 10 times MIC concentration for 1 hr followed by 1:1000 dilution by viable plate count method; format: functional
[6] = tested on: Klebsiella pneumoniae; experiment: Antibacterial activity against Klebsiella pneumoniae assessed as post-antibiotic sub-MIC effect at 0.2 times MIC concentration pretreated with 2 times MIC concentration for 1 hr followed by 1:1000 dilution by viable plate count method; format: functional
[7] = tested on: Acinetobacter baumannii; experiment: Antibacterial activity against multidrug-resistant Acinetobacter baumannii producing OXA-24 and OXA-51 beta-lactamases assessed as post-antibiotic sub-MIC effect at 0.2 times MIC concentration pretreated with 2 times MIC concentration for 1 hr followed by 1:1000 dilution by viable plate count method; format: functional
[8] = tested on: Staphylococcus aureus; experiment: Antibacterial activity against vancomycin-intermediate methicillin-resistant Staphylococcus aureus assessed as sub-MIC effect at 0.3 times MIC concentration incubated for 1 hr by viable plate count method; format: functional
[9] = tested on: Haemophilus influenzae; experiment: Antibacterial activity against amoxicillin, clavulanate-resistant Haemophilus influenzae expressing beta-lactamase assessed as sub-MIC effect at 0.3 times MIC concentration incubated for 1 hr by viable plate count method; format: functional
[10] = tested on: Streptococcus pneumoniae; experiment: Antibacterial activity against penicillin-intermediate Streptococcus pneumoniae assessed as post-antibiotic sub-MIC effect at 0.3 times MIC concentration pretreated with 10 times MIC concentration for 1 hr followed by 1:1000 dilution by viable plate count method; format: functional
[11] = tested on: Escherichia coli; experiment: Antibacterial activity against Escherichia coli assessed as post-antibiotic sub-MIC effect at 0.3 times MIC concentration pretreated with 6 times MIC concentration for 1 hr followed by 1:1000 dilution by viable plate count method; format: functional
[12] = tested on: Enterobacter cloacae; experiment: Antibacterial activity against Enterobacter cloacae assessed as post-antibiotic sub-MIC effect at 0.3 times MIC concentration pretreated with 10 times MIC concentration for 1 hr followed by 1:1000 dilution by viable plate count method; format: functional
[13] = tested on: Enterobacter cloacae; experiment: Antibacterial activity against Enterobacter cloacae assessed as sub-MIC effect at 0.4 times MIC concentration incubated for 1 hr by viable plate count method; format: functional
[14] = tested on: Streptococcus pneumoniae; experiment: Antibacterial activity against penicillin-susceptible Streptococcus pneumoniae assessed as post-antibiotic sub-MIC effect at 0.4 times MIC concentration pretreated with 10 times MIC concentration for 1 hr followed by 1:1000 dilution by viable plate count method; format: functional
[15] = tested on: Streptococcus pneumoniae; experiment: Antibacterial activity against penicillin-intermediate Streptococcus pneumoniae assessed as post-antibiotic sub-MIC effect at 0.4 times MIC concentration pretreated with 10 times MIC concentration for 1 hr followed by 1:1000 dilution by viable plate count method; format: functional
[16] = tested on: Staphylococcus aureus; experiment: Antibacterial activity against vancomycin-sensitive methicillin-resistant Staphylococcus aureus assessed as post-antibiotic sub-MIC effect at 0.4 times MIC concentration pretreated with 6 times MIC concentration for 1 hr followed by 1:1000 dilution by viable plate count method; format: functional
[17] = tested on: Staphylococcus aureus; experiment: Antibacterial activity against vancomycin-intermediate methicillin-resistant Staphylococcus aureus assessed as post-antibiotic sub-MIC effect at 0.4 times MIC concentration pretreated with 10 times MIC concentration for 1 hr followed by 1:1000 dilution by viable plate count method; format: functional
[18] = tested on: Enterococcus faecalis; experiment: Antibacterial activity against vancomycin-resistant Enterococcus faecalis assessed as post-antibiotic sub-MIC effect at 0.4 times MIC concentration pretreated with 10 times MIC concentration for 1 hr followed by 1:1000 dilution by viable plate count method; format: functional
[19] = tested on: Haemophilus influenzae; experiment: Antibacterial activity against amoxicillin, clavulanate-resistant Haemophilus influenzae expressing beta-lactamase assessed as post-antibiotic sub-MIC effect at 0.4 times MIC concentration pretreated with 6 times MIC concentration for 1 hr followed by 1:1000 dilution by viable plate count method; format: functional
[20] = tested on: Haemophilus influenzae; experiment: Antibacterial activity against beta-lactamase deficient ampicillin-resistant Haemophilus influenzae assessed as post-antibiotic sub-MIC effect at 0.3 times MIC concentration pretreated with 10 times MIC concentration for 1 hr followed by 1:1000 dilution by viable plate count method; format: functional
[21] = tested on: Staphylococcus aureus; experiment: Antibacterial activity against vancomycin-sensitive methicillin-resistant Staphylococcus aureus assessed as sub-MIC effect at 0.2 times MIC concentration incubated for 1 hr by viable plate count method; format: functional
[22] = tested on: Streptococcus pneumoniae; experiment: Antibacterial activity against penicillin-resistant Streptococcus pneumoniae assessed as sub-MIC effect at 0.2 times MIC concentration incubated for 1 hr by viable plate count method; format: functional
[23] = tested on: Streptococcus pneumoniae; experiment: Antibacterial activity against penicillin-intermediate Streptococcus pneumoniae assessed as sub-MIC effect at 0.2 times MIC concentration incubated for 1 hr by viable plate count method; format: functional
[24] = tested on: Enterococcus faecalis; experiment: Antibacterial activity against vancomycin-sensitive Enterococcus faecalis assessed as post antibiotic effect at 10 times MIC concentration incubated for 1 hr measured after 1:1000 dilution by viable plate count method; format: functional
[25] = tested on: Streptococcus pneumoniae; experiment: Antibacterial activity against penicillin-susceptible Streptococcus pneumoniae assessed as post antibiotic effect at 10 times MIC concentration incubated for 1 hr measured after 1:1000 dilution by viable plate count method; format: functional
[26] = tested on: Klebsiella pneumoniae; experiment: Antibacterial activity against Klebsiella pneumoniae by macrodilution method; format: functional
[27] = tested on: Enterococcus faecalis; experiment: Antibacterial activity against vancomycin-resistant Enterococcus faecalis by macrodilution method; format: functional
[28] = tested on: Enterococcus faecalis; experiment: Antibacterial activity against vancomycin-sensitive Enterococcus faecalis by macrodilution method; format: functional
[29] = tested on: Staphylococcus aureus; experiment: Antibacterial activity against vancomycin-sensitive methicillin-resistant Staphylococcus aureus by macrodilution method; format: functional
[30] = tested on: Klebsiella pneumoniae; experiment: Antibacterial activity against Klebsiella pneumoniae assessed as post-antibiotic sub-MIC effect at 0.4 times MIC concentration pretreated with 10 times MIC concentration for 1 hr followed by 1:1000 dilution by viable plate count method; format: functional
[31] = tested on: Acinetobacter baumannii; experiment: Antibacterial activity against multidrug-resistant Acinetobacter baumannii producing OXA-24 and OXA-51 beta-lactamases assessed as post-antibiotic sub-MIC effect at 0.4 times MIC concentration pretreated with 2 times MIC concentration for 1 hr followed by 1:1000 dilution by viable plate count method; format: functional
[32] = tested on: Escherichia coli; experiment: Antibacterial activity against Escherichia coli assessed as post antibiotic effect; format: functional
[33] = tested on: Klebsiella pneumoniae; experiment: Antibacterial activity against Klebsiella pneumoniae assessed as post antibiotic effect; format: functional
[34] = tested on: Streptococcus pneumoniae; experiment: Antibacterial activity against Streptococcus pneumoniae infected in neutropenic mouse thighs assessed as post antibiotic effect; format: functional, Thigh muscle

Compound: CN(C)c1cc(NC(=O)CNC(C)(C)C)c(O)c2c1C[C@H]1C[C@H]3[C@H](N(C)C)C(O)=C(C(N)=O)C(=O)[C@@]3(O)C(O)=C1C2=O [TIGECYCLINE]
- PAE [1]: 3.6 h
- PAE [2]: 5.6 h
- PAE [3]: 5.3 h
- PAE [4]: 2.8 h
- PAE [5]: 3.9 h
- PAE [6]: 1.8 h
- PAE [7]: 1.2 h
- PAE [8]: 2.9 h
- PAE [9]: 0.8 h
- PAE [10]: 8.8 h
- PAE [11]: 2.9 h
- PAE [12]: 5 h
- PAE [13]: 2.7 h
- PAE [14]: 9 h
- PAE [15]: 8.8 h
- PAE [16]: 6.9 h
- PAE [17]: 10 h
- PAE [18]: 11 h
- PAE [19]: 7.7 h
- PAE [20]: 2.8 h
- PAE [21]: 0.2 h
- PAE [22]: 0.5 h
- PAE [23]: 1.9 h
- PAE [24]: 3.9 h
- PAE [25]: 3.7 h
- MIC [26]: 0.25 µg/mL (≈ 0.427 µM)
- MIC [27]: 0.06 µg/mL (≈ 0.102 µM)
- MIC [28]: 0.06 µg/mL (≈ 0.102 µM)
- MIC [29]: 0.12 µg/mL (≈ 0.205 µM)
- PAE [30]: 2.3 h
- PAE [31]: 3 h
- PAE [32]: 2 h
- PAE [33]: 2 h
- PAE [34]: 8.9 h
